Measured values from the NIST ThermoML archive (doi:10.1021/je060219e).
Where “and” joins values, the source holds several entries; their conditions need not be identical. Identical values can stand only once.

Assay: φn = volume fraction of the nth substance listed
Conditions: 101 kPa, Liquid

CCO [ethanol] + O
viscosity
Conditions | 303.15 K | 308.15 K | 313.15 K | 318.15 K | 323.15 K
φ1 = 0.1 | 0.6791 mPa·s | 0.6191 mPa·s | 0.5909 mPa·s | 0.5763 mPa·s | 0.5305 mPa·s
φ1 = 0.2 | 0.9735 mPa·s | 0.871 mPa·s | 0.7442 mPa·s | 0.6476 mPa·s | 0.598 mPa·s
φ1 = 0.3 | 1.186 mPa·s | 0.8816 mPa·s | 0.8614 mPa·s | 0.797 mPa·s and 0.79 mPa·s | 0.698 mPa·s
φ1 = 0.4 | 1.254 mPa·s | 1.147 mPa·s | 0.9262 mPa·s | 0.8844 mPa·s | 0.7081 mPa·s
φ1 = 0.5 | 1.426 mPa·s | 1.216 mPa·s | 1.14 mPa·s | 0.8776 mPa·s | 0.825 mPa·s
